Where “and” joins values, the source holds several entries; their conditions need not be identical. Identical values can stand only once.
Assays:
[1] = system: animal models of inflammatory (formalin test) pain; conditions: administered locally; cited from earlier work
patients = conditions: cited from earlier work
[2] = system: subjects with osteoarthritis of the knee; experiment: Osteoarthritis of the Knee Safety Study: VAS pain score at the target knee; type: in vivo, human
Protocol: (§1) Each subject had 3 study visits: a Screening Day (Day −7 to −1), the Treatment Day (Day 0), and a Post-Treatment Day (scheduled for Day +2, +4, +7, or +14). On the Treatment Day the subject was randomized, pre-treatment evaluation was performed. The patients were brought into the procedure room, and a VAS pain score was taken (0 mm—no pain, 100 mm—extreme pain). Once the patient had marked his or her pain on the card, he/she was prepped for knee cannulation. Once the cannula was placed, the patient received by intra-articular infiltration, 3 mg/kg (maximum dose of 200 mg) of 2% lignocaine into the knee scheduled to be replaced.
(§2) VAS pain scores as well as verbal reports were taken immediately following administration, as well as prior to knee replacement surgery. No subjects discontinued from the study due to adverse events.
On the Post-Treatment Day, study evaluation was performed followed by the scheduled knee replacement, with intra-operative bone and soft tissue biopsies performed for subsequent examination. […] This therefore left the 3 placebo and 9 active patients from the 4 day, 7 day, and 14 day cohorts.

rats = conditions: systemic, final doses of 25 mg/kg or less; cited from earlier work
[3] = system: subjects undergoing transpositional osteotomy (bunionectomy); experiment: Bunionectomy Efficacy Study: VAS pain at operation site and rescue medication; type: in vivo, human; conditions: for VAS pain score at operation site (mean +/− SEM): 1000 μg into wound, n = 11
Protocol: The primary efficacy endpoint was the proportion of subjects in each treatment group requiring opioid analgesia in the first 24 hours post-operatively. The proportions were compared amongst treatment groups using the Cochran-Haenszel test. Secondary efficacy end points included: i) proportion of subjects in each treatment group requiring opioid analgesia in the first 36 hour period post-operatively (Similarly, the proportions were compared amongst treatment groups using the Cochran-Haenszel test); ii) proportion of subjects in each treatment group requiring opioid analgesia in the 10 day period post-operatively (Similarly, the proportions were compared amongst treatment groups using the Cochran-Haenszel test); iii) time to first usage of opioid analgesia in each treatment group (a survival analysis approach will be used: the product-limit (Kaplan-Meier) method will be applied to time to first usage of opioid analgesia. The median time to first usage of opioid analgesia will be estimated in both treatment groups. Pairwise comparisons will be performed to test for equality of the survival curves between the 2 treatment groups using both the log-rank and the Wilcoxon test); iv) total usage of analgesia in each treatment group (the total usage of analgesia will be compared by an analysis of variance with treatment and center as independent variables. A pairwise comparison will be performed between the treatment groups); and v) VAS, assessment of pain at the site of operation in each treatment group. (The VAS score at each time point will be compared by an analysis of variance with treatment and center as independent variables. A pairwise comparison will be performed between the treatment groups). […] The efficacy analysis was performed on the data obtained ten days postoperatively. The safety analysis was performed based on the safety data for the entire study, including the 6 week and 12 week follow-up periods. The blind was broken at the time the efficacy analysis was performed. However, the individual treatment assignment was available to the statistical analysis group only. All other personnel involved in the study, including the Investigator, study monitor and proprietary staff, remained blinded until the entire study was completed.
The study was designed to include 40 evaluation subjects. […] Each subject had six (6) study visits: a Screening Day (Day −28 to −1), an Operation Day (Day 0), and four (4) Follow-up visits (scheduled for Days 3, 10 and weeks 6 and 12).
On Operation Day (Day 0) the following was performed: a) Pre-operation: Prior to the initiation of an ankle block, inclusion/exclusion criteria assessment was performed. […] Immediately prior to wound closure, the Investigator slowly dripped the study medication (4 mL) from a syringe into the wound, ensuring even tissue exposure. The wound was then be closed according to normal practices and procedures.
In the 24 hours following administration of study medication, vital signs (supine pulse rate and blood pressure) were recorded at 1, 2, 4 and 24 hours post administration. VAS assessment of pain at the operation site was performed at 1, 4, 8, 12 and 24 hours post administration. In those instances where VAS measurements coincide with blood sampling procedures, the VAS assessment was performed first. […] The quantity of each blood sample was 10 mL. Laboratory safety assessments, e.g., haematology, biochemistry, urinalysis were performed at 24 hours post administration. Adverse events were spontaneously reported by the subject and recorded. Rescue analgesia medication was provided to the subject if required (initially diclofenac 50 mg, repeated at 8-hourly intervals if necessary). When diclofenac was judged by the Investigator to provide inadequate pain relief then the subject was provided with alfentanil 1 mg, repeated at 6 hourly intervals, if necessary.

[4] = parameters: species or system human; conditions: in vivo
Protocol: The pharmacokinetic parameters of Cmax, Tmax, AUC (0−tlast) and t½ were evaluated.

[5] = system: subjects with osteoarthritis of the knee; experiment: Osteoarthritis of the Knee Safety Study: safety and tolerability of intra-articular purified capsaicin with local anesthetic; type: in vivo, human
Protocol: The primary objective of the study was to evaluate the safety and tolerability of intra-articular capsaicin, when co-administered with intra-articular local anesthetic, compared to placebo, in subjects with end-stage osteoarthritis of the knee, already scheduled to receive knee replacements.
The study was designed to include 16 evaluation subjects. […] Sixteen subjects completed the study.
Patients were treated randomly and in double-blind fashion in four treatment groups, with each group having a progressively longer interval between the intra-articular administration of study medication and subsequent total knee replacement (2, 4, 7, and 14 days). […] Gross and microscopic pathology analysis was completed for each treatment group before the next treatment group was treated.
as §1, §2

[6] = 1000 μg prior to wound closure, n=11
[7] = 10, 100, 300 μg intra-articular

CN(C)CCC=C1c2ccccc2CCc2ccccc21 [amitriptyline]
local antinociceptive action [1]: produced local antinociceptive actions

CNCCCN1c2ccccc2CCc2ccccc21 [desipramine]
local antinociceptive action [1]: produced local antinociceptive actions

CN1C(C(=O)Nc2ccccn2)=C(O)c2ccccc2S1(=O)=O [piroxicam]
patients experiencing gross bleeding and ulceration (patients): up to 4%

COc1cc(CNC(=O)CCCC/C=C/C(C)C)ccc1O [purified capsaicin, N-(4-hydroxy-3-methoxybenzyl)-8-methylnon-trans-6-enamide]
VAS reduction, prior to administration versus day of surgery ([2]; 9 active patients of the 4, 7 and 14 day cohorts, 10-300 μg pooled): 62±14%
median decrease from baseline to pre-operative time point in VAS for pain at target knee, versus placebo ([2]; all 3 capsaicin dose groups): substantially greater
treatment related indication of efficacy (VAS) ([2]; any of the dose levels (10 μg, 100 μg, 300 μg)): No clear treatment related indication of efficacy
effect on pain threshold (rats): did not elevate the pain threshold above normal range
VAS pain score at operation site (mean +/− SEM) ([3]; 8 hr): 5.5 +/− 2.3
VAS pain score at operation site (mean +/− SEM) ([3]; 12 hr): 8.2 +/− 3.8
VAS pain score at operation site (mean +/− SEM) ([3]; 24 hr): 1.9 +/− 1.0
VAS pain score at operation site (mean +/− SEM) ([3]; 48 hr): 5.9 +/− 2.5
subjects who did not rescue in 72 hours [3, 6]: 6 subjects
time at which individual subject required rescue [3, 6]: 1 h and 4 h and 5 h and 8 h and 12 h
plasma concentrations in the 10 μg dose group compared with the 100 μg or 300 μg dose groups [4]: clearly lower
duration of post-administration (hyper)algesic pain, individual subject ([5]; 100 μg dose group): 9 min
duration of post-administration (hyper)algesic pain, individual subjects ([5]; 300 μg dose group): 17 minutes and 25 minutes (2×) and 42 minutes
effects on laboratory safety parameters or vital signs [5, 7]: no treatment related effects on laboratory safety parameters or vital signs
effects on soft tissue, cartilage, or bone upon histopathological examination [5, 7]: no treatment related effects on soft tissue, cartilage, or bone
erythema, edema, or hemorrhage at the site of injection [5, 7]: no treatment related signs of erythema, edema, or hemorrhage
leakage of study drug from the joint space [5, 7]: low leakage
systemic side effects [5, 7]: No treatment related systemic side effects
gross and microscopic pathology ([5]; knee tissue at replacement 2-14 days after dose): normal
